Experimental data published in patent publication US12378248B2 (The United States of America, as represented by the …, priority 2018, dated 2025).

Experiments:
[1] = target: TSPO (translocator protein) (UniProt P30536); test: Off-target interaction determined by the PDSP; assay type: binding, human; settings: read-out: Off-target, receptor (h, unless noted) (Ki, μM): TSPO
hA1AR = target: T1, hA1AR (Homo sapiens, UniProt P30542); test: Radioligand binding in membranes of CHO cells expressing hA1AR, [3H]N6-R-phenylisopropyladenosine; settings: read-out: A1AR % inhibition or Ki; for Ki: (h)
T1 construct: expressed in transfected cells; host or cells: CHO
T1 sequence (P30542 1-326): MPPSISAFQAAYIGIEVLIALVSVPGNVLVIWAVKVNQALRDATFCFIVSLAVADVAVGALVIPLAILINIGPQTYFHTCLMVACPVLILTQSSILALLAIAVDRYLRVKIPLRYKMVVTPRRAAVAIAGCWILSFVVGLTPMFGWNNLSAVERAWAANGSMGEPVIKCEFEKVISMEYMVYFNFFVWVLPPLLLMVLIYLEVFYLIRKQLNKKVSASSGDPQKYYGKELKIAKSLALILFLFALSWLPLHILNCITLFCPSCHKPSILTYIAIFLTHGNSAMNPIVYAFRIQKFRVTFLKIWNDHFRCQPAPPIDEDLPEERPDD

mA1AR = target: T2, mA1AR (Mus musculus, UniProt Q60612); test: Adenosine receptor binding, mA1AR; settings: (m); Ki; read-out: A1AR % inhibition or Ki (converted)
T2 sequence (Q60612 1-326): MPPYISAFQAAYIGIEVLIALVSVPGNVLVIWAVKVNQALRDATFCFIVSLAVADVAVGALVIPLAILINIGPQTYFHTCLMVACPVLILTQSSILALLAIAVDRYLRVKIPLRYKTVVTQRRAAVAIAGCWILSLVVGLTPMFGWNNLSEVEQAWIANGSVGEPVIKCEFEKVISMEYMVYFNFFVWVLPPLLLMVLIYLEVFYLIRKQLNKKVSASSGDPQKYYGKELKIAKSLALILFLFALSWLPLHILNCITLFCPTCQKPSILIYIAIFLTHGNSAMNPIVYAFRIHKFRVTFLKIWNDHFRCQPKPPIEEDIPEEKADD

hA3AR = target: T3, hA3AR (Homo sapiens, UniProt P0DMS8); test: Radioligand binding in membranes of CHO cells expressing hA3AR; settings: read-out: A3AR % inhibition or Ki; for Ki: (h)
T3 construct: expressed in transfected cells; host or cells: CHO
T3 sequence (P0DMS8 1-318): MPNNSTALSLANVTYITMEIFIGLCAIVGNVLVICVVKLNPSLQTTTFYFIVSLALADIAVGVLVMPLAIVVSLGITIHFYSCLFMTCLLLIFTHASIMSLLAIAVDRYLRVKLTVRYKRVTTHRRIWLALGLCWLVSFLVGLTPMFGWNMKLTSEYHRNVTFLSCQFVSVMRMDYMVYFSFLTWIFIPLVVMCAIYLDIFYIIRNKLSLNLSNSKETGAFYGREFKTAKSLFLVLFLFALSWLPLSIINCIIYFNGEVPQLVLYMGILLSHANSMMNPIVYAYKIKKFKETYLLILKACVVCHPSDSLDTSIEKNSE

mA3AR = target: T4, mA3AR (Mus musculus, UniProt Q61618); test: Adenosine receptor binding, mA3AR; settings: for Ki: (m), read-out: A3AR % inhibition or Ki (converted)
T4 sequence (Q61618 1-319): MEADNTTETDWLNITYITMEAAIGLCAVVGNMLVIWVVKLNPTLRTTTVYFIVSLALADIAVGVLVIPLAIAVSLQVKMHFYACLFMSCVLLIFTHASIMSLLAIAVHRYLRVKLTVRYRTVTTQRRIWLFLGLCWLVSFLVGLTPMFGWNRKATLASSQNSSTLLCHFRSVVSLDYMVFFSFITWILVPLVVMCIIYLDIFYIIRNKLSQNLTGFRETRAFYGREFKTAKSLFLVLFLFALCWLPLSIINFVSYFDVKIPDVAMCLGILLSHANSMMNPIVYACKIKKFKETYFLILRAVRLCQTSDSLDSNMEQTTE

hA2AAR = target: T5, hA2AAR (Homo sapiens, UniProt P29274); test: Radioligand binding in membranes of HEK293 cells expressing hA2AAR; settings: read-out: A2AAR % inhibition
T5 construct: expressed in transfected cells; host or cells: HEK293
T5 sequence (P29274 whole entry): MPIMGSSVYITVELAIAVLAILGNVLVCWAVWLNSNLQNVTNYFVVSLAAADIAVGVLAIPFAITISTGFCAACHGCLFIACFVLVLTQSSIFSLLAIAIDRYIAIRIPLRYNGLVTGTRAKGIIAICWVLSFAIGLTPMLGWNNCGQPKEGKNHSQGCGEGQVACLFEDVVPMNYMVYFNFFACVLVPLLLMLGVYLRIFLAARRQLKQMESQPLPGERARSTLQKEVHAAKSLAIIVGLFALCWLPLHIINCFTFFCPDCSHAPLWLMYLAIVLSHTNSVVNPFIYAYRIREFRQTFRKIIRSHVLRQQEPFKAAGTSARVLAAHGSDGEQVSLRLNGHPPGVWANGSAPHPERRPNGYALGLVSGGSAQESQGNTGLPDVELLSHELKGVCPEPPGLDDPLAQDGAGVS

wild-type C57BL/6J mice [2] = test: Locomotor activity by telemetry after ip dosing; assay type: in vivo, mouse; settings: average from dosing to 60 min, mean±SD
Protocol: (§1) Compounds were dosed ip. Tb and activity were measured by telemetry and the averages from dosing to 60 min were calculated. […] Data are for the highest dose used and are mean±SD from 3 to 22 mice/group (usually 5-7). P values are unpaired t-Test vs vehicle-treated controls assayed simultaneously. Vehicle data are mean±SD from all (n=83) vehicle treated mice.

serotonin receptor 5HT2C = target: T6, serotonin receptor 5HT2C (Homo sapiens, UniProt P28335); test: Off-target interaction determined by the PDSP; assay type: binding; settings: read-out: Off-target, receptor (h, unless noted) (Ki, μM): 5HT2C
T6 sequence (P28335 33-458): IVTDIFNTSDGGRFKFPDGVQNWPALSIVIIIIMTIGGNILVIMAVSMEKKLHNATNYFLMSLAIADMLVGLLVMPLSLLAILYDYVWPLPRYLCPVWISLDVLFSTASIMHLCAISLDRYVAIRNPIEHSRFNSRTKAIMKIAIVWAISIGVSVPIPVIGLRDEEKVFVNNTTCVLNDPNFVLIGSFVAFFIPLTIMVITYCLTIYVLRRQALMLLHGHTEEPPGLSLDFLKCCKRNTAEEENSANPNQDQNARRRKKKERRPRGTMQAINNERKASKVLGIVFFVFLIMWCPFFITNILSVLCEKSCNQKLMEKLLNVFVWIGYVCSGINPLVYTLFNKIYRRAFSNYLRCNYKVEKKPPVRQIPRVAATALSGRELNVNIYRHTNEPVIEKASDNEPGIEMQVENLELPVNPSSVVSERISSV

muscarinic receptor M5 = muscarinic receptor M5 (Homo sapiens, UniProt P08912); test: Off-target interaction determined by the PDSP; assay type: binding; settings: read-out: Off-target, receptor (h, unless noted) (Ki, μM): M5
Chain of muscarinic receptor M5 (P08912 whole entry): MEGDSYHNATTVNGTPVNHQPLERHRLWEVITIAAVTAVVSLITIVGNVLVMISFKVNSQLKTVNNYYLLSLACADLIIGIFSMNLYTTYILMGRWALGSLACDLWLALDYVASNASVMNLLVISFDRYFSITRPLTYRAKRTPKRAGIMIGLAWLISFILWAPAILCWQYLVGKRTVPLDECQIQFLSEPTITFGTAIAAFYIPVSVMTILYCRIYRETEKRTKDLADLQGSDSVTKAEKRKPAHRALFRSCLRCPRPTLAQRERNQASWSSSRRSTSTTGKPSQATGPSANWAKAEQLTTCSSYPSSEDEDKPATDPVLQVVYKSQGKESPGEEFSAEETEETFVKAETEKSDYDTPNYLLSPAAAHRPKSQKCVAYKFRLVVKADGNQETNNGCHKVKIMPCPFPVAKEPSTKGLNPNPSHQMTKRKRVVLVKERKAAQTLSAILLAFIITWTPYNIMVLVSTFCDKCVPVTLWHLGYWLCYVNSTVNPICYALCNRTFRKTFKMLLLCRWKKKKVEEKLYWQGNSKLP

[3] = target: dopamine transporter (DAT) (Homo sapiens, UniProt Q01959); test: Off-target interaction determined by the PDSP; assay type: binding; settings: read-out: Off-target, receptor (h, unless noted) (Ki, μM): DAT
wild-type C57BL/6J mice [4] = test: Hypothermia (Tb by telemetry) after ip dosing; assay type: in vivo, mouse; settings: average from dosing to 60 min, mean±SD
Protocol: as §1

mA2AAR = mA2AAR (Mus musculus, UniProt Q60613); test: Adenosine receptor binding, mA2AAR; settings: read-out: A2AAR % inhibition (converted)
Chain of mA2AAR (Q60613 whole entry): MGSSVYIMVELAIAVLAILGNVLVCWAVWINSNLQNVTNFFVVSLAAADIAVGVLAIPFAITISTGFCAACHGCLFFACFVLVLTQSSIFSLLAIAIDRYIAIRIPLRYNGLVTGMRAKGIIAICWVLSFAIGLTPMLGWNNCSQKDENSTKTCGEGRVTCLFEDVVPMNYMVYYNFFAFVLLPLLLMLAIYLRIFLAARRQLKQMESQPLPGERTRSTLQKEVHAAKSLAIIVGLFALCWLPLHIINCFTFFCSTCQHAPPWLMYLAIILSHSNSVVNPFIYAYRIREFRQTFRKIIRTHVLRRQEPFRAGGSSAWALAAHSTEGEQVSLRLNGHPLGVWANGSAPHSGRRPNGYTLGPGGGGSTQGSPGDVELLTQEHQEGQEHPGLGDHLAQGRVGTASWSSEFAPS

sigma receptor σ1 = sigma receptor σ1 (Homo sapiens, UniProt Q99720); test: Off-target interaction determined by the PDSP; assay type: binding; settings: read-out: Off-target, receptor (h, unless noted) (Ki, μM): σ1
Chain of sigma receptor σ1 (Q99720 whole entry): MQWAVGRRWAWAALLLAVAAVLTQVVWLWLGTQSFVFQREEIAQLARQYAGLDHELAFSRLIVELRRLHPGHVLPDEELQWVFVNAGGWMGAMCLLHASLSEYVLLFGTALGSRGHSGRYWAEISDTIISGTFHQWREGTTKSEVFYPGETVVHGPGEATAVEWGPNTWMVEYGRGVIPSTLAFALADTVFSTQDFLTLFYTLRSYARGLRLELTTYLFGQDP

sigma receptor σ2 = sigma receptor σ2 (UniProt Q5BJF2); test: Off-target interaction determined by the PDSP; assay type: binding, human; settings: read-out: Off-target, receptor (h, unless noted) (Ki, μM): σ2
serotonin receptor 5HT2B = serotonin receptor 5HT2B (Homo sapiens, UniProt P41595); test: Off-target interaction determined by the PDSP; assay type: binding; settings: read-out: Off-target, receptor (h, unless noted) (Ki, μM): 5HT2B
Chain of serotonin receptor 5HT2B (P41595 whole entry): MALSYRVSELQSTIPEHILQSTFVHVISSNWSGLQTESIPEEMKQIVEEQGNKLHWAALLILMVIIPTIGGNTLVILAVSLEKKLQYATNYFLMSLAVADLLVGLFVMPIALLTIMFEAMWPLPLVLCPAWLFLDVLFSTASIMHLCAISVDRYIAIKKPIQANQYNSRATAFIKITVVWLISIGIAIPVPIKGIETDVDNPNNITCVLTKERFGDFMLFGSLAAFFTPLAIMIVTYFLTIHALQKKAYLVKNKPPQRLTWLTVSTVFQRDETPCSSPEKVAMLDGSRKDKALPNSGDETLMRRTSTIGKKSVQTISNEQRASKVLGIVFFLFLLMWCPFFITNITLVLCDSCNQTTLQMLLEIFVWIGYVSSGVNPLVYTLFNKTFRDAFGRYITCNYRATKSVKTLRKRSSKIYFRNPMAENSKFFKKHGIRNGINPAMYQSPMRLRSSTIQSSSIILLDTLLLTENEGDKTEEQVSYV

adrenergic receptor α2A = adrenergic receptor α2A (Homo sapiens, UniProt P08913); test: Off-target interaction determined by the PDSP; assay type: binding; settings: read-out: Off-target, receptor (h, unless noted) (Ki, μM): α2A
Chain of adrenergic receptor α2A (P08913 whole entry): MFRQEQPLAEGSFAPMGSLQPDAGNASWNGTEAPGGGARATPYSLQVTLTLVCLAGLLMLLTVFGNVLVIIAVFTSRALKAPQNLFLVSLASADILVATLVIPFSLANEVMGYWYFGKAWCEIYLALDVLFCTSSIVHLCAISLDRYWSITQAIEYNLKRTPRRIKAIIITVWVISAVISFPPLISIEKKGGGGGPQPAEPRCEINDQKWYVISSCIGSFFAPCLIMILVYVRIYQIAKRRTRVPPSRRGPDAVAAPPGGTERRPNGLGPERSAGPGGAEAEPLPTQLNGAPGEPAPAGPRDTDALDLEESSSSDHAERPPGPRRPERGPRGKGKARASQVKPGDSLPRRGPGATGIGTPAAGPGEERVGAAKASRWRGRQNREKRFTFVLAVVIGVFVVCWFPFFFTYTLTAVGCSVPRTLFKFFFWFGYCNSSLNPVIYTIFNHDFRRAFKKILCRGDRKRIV

histamine receptor H2 = histamine receptor H2 (Homo sapiens, UniProt P25021); test: Off-target interaction determined by the PDSP; assay type: binding; settings: read-out: Off-target, receptor (h, unless noted) (Ki, μM): H2
Chain of histamine receptor H2 (P25021 whole entry): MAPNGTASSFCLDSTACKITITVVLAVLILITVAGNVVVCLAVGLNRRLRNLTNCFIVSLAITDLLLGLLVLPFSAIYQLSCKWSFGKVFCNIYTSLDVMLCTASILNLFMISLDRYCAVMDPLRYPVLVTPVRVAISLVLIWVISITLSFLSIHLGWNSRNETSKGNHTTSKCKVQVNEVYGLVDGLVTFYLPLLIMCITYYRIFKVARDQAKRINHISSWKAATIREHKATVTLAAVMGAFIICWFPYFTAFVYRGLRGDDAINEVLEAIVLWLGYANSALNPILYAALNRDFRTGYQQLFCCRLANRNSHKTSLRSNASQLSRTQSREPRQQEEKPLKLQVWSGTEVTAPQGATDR

muscarinic receptor M3 = muscarinic receptor M3 (Homo sapiens, UniProt P20309); test: Off-target interaction determined by the PDSP; assay type: binding; settings: read-out: Off-target, receptor (h, unless noted) (Ki, μM): M3
Chain of muscarinic receptor M3 (P20309 whole entry): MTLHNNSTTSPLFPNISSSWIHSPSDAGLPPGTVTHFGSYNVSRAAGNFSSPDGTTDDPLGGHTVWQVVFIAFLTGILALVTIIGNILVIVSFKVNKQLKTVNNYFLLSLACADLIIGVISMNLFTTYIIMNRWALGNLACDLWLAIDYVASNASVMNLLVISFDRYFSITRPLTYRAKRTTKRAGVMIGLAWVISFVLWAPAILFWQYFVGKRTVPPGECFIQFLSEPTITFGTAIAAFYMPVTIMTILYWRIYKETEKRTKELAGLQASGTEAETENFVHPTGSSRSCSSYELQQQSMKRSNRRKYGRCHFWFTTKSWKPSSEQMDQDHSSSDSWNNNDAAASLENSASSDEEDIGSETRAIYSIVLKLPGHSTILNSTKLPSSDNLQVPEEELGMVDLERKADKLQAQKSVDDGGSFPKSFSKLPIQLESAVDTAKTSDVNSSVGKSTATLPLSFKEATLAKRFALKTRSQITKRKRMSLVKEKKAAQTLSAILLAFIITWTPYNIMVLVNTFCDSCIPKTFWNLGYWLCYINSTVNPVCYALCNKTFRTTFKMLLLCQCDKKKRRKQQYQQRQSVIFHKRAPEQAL

[5] = target: kappa (KOR) opioid receptor (Homo sapiens, UniProt P41145); test: Off-target interaction determined by the PDSP; assay type: binding; settings: read-out: Off-target, receptor (h, unless noted) (Ki, μM): KOR
Chain of kappa (KOR) opioid receptor (P41145 whole entry): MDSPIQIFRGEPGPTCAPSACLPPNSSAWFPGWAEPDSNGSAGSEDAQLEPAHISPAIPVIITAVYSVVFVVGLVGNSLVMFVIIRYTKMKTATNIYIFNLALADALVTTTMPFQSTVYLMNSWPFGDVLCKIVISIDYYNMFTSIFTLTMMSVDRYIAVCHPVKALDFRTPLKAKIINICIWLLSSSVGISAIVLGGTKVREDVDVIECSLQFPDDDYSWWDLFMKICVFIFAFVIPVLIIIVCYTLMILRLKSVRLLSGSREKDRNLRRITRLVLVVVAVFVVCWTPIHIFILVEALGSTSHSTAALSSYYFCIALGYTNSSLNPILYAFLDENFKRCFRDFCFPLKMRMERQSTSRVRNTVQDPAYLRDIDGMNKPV

adrenergic receptor β3 = adrenergic receptor β3 (Homo sapiens, UniProt P13945); test: Off-target interaction determined by the PDSP; assay type: binding; settings: read-out: Off-target, receptor (h, unless noted) (Ki, μM): β3
Chain of adrenergic receptor β3 (P13945 whole entry): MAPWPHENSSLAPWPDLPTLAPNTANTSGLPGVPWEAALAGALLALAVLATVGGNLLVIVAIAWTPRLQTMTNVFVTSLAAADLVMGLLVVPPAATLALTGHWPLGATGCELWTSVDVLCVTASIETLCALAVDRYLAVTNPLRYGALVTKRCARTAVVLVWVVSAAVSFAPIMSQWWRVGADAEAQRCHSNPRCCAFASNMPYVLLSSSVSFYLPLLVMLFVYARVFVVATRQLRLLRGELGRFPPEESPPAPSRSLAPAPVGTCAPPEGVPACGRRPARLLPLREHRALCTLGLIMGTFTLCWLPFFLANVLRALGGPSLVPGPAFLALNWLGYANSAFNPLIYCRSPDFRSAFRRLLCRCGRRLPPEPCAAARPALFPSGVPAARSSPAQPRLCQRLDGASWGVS

histamine receptor H3 = histamine receptor H3 (Homo sapiens, UniProt Q9Y5N1); test: Off-target interaction determined by the PDSP; assay type: binding; settings: read-out: Off-target, receptor (h, unless noted) (Ki, μM): H3
Chain of histamine receptor H3 (Q9Y5N1 whole entry): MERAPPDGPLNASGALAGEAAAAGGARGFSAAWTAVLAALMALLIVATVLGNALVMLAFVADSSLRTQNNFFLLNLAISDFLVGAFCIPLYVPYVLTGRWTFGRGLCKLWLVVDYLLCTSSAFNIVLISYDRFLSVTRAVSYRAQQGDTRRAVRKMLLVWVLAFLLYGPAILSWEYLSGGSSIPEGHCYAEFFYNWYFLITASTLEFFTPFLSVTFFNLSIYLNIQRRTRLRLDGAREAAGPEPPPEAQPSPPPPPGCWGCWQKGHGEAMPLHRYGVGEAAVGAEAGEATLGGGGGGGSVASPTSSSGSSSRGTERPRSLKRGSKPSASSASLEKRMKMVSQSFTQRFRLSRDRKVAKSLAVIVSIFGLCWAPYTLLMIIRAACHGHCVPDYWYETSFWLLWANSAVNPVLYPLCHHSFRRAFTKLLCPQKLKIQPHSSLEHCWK

Compound | Ki [1] | Ki (hA1AR) | Ki (mA1AR) | inhibition at 10 µM (hA3AR) | Ki (mA3AR) | inhibition at 10 µM (hA2AAR) | Activity (counts) (wild-type C57BL/6J mice [2]; 10 mg/kg ip) | Ki (serotonin receptor 5HT2C) | Tb (° C.) (wild-type C57BL/6J mice [4]; 10 mg/kg ip) | inhibition at 10 µM (mA2AAR) | Ki (sigma receptor σ2) | Ki (serotonin receptor 5HT2B) | Ki (hA3AR) | other results
OC[C@@]12C[C@@H]1[C@@H](n1cnc3c(NC(C4CCC4)C4CCC4)nc(Cl)nc31)[C@H](O)[C@@H]2O [Compound 25, (1R,2R,3S,4R,5S)-4-(2-Chloro-6-((dicyclobutylmethyl)amino)-9H-purin-9-yl)-1-(hydroxymethyl)bicyclo[3.1.0]hexane-2,3-diol] | 2.93 µM | 8.96 ± 1.02 nM | 2.47 nM | 25 ± 2% | 612 nM | 55 ± 5% | 18.4 ± 3.2 counts | 0.238 µM | 36.6 ± 0.2 °C | 26% |  |  |  | Ki (muscarinic receptor M5): 3 µM; Ki [3]: 4.75 µM
O[C@H]1[C@H](n2cnc3c(NC(C4CCC4)C4CCC4)ncnc32)[C@H]2C[C@@]2(CCl)[C@H]1O [Compound 26, (1S,2R,3S,4R,5S)-1-(Chloromethyl)-4-(6-((dicyclobutylmethyl)amino)-9H-purin-9-yl)bicyclo[3.1.0]hexane-2,3-diol] | 2.02 µM | 32.7 ± 12.4 nM | 1.05 nM | 49 ± 4% | 934 nM | 38 ± 3% |  |  |  |  | 1.17 µM | 2.01 µM |  | Ki (sigma receptor σ1): 1.5 µM; Activity (counts) (wild-type C57BL/6J mice [2]; 3 mg/kg ip): 14.8 ± 1.7 counts; Ki (adrenergic receptor α2A): 6.8 µM; Tb (° C.) (wild-type C57BL/6J mice [4]; 3 mg/kg ip): 35.9 ± 0.5 °C
O[C@H]1[C@H](n2cnc3c(NC(C4CCC4)C4CCC4)nc(Cl)nc32)[C@H]2C[C@@]2(CCl)[C@H]1O [Compound 27, (1S,2R,3S,4R,5S)-4-(2-Chloro-6-((dicyclobutylmethyl)amino)-9H-purin-9-yl)-1-(chloromethyl)bicyclo[3.1.0]hexane-2,3-diol] | 2.89 µM | 120 ± 23 nM | 11.2 nM |  |  | 17 ± 24% | 18.9 ± 10.2 counts | 1.75 µM | 36.5 ± 0.6 °C | 20% | 0.349 µM |  | 3820 ± 1820 nM | Ki (histamine receptor H2): 2.6 µM
CCOC(=O)[C@@]12C[C@@H]1[C@@H](n1cnc3c(NC(C4CCC4)C4CCC4)nc(Cl)nc31)[C@H](O)[C@@H]2O [Compound 35, Ethyl (1S,2R,3S,4R,5S)-4-(2-Chloro-6-((dicyclobutylmethyl)amino)-9H-purin-9-yl)-2,3-dihydroxybicyclo[3.1.0]hexane-1-carboxylate] |  | 73.8 ± 14.2 nM |  |  |  | 57 ± 12% |  | 0.089 µM |  |  | 2.02 µM | 0.097 µM | 1160 ± 300 nM | Ki (muscarinic receptor M3): 5.9 µM
O=C(NCCO)[C@@]12C[C@@H]1[C@@H](n1cnc3c(N[C@H]4C[C@H]5CC[C@@H]4C5)nc(Cl)nc31)[C@H](O)[C@@H]2O [Compound 37, (1S,2R,3S,4R,5S)-4-(6-(((1R,2S,4S)-bicyclo[2.2.1]heptan-2-yl)amino)-2-chloro-9H-purin-9-yl)-2,3-dihydroxy-N-(2-hydroxyethyl)bicyclo[3.1.0]hexane-1-carboxamide] |  | 17.6 ± 5.3 nM | 1.56 nM |  | 447 nM |  |  |  |  | 23% |  | 0.718 µM | 127 ± 29 nM | Ki [5]: 2.63 µM; Ki (hA2AAR; (h), values without % sign (Ki)): 5.4 µM
COC(=O)c1ncn([C@H]2[C@H](O)[C@H](O)[C@]3(CO)C[C@H]23)n1 [Compound 39, Methyl 1-((1S,2R,3S,4R,5R)-3,4-dihydroxy-5-(hydroxymethyl)bicyclo[3.1.0]hexan-2-yl)-1H-1,2,4-triazole-3-carboxylate] |  |  | 2990 ± 80 nM | 22 ± 4% |  | 14 ± 5% |  |  |  |  | 1.72 µM |  |  | inhibition at 10 µM (hA1AR): 6 ± 4%; Ki (adrenergic receptor β3): 1.42 µM; inhibition at 10 µM (mA3AR; read-out: A3AR % inhibition or Ki): 15 ± 2%; Ki (histamine receptor H3): 4.52 µM
